Patent US8785468B2, “Phenylalanine amide derivatives useful for treating insulin-related diseases and conditions” (Amgen Inc., priority 2009, dated 2014)
Where a name gives a salt, the structure may show the parent alone.

molecular target: T1, human receptor found in pancreatic islet cells (Homo sapiens, UniProt Q7Z601); assay: Activation of intracellular IP3 signaling in transfected cells (Activation Assay); type: cell-based; settings: calculated from IP3 concentration measurements in cells transfected with the human receptor
T1 sequence (Q7Z601 1-462): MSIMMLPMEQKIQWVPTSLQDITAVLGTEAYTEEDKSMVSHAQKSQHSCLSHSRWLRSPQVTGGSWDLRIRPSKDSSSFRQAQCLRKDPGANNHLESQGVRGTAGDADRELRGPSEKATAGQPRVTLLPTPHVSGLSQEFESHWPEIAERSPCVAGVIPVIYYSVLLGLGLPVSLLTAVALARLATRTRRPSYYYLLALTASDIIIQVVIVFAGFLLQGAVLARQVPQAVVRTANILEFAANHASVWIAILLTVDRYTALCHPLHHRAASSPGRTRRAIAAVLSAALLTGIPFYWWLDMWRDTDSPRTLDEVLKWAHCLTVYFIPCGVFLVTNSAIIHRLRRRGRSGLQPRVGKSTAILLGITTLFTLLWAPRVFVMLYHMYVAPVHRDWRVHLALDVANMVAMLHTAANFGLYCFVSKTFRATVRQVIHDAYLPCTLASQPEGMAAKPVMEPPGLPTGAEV
Protocol: Table 12 provides exemplary compounds that were prepared and assessed, following protocols known to those of skilled in the art, for activation of intracellular inositol trisphosphate (IP3) signaling pathways that lead to elevation of intracellular calcium concentration. EC50 values provided in Table 12 were calculated from IP3 concentration measurements in cells transfected with a human receptor found in pancreatic islet cells, inter alia.

SMILES | EC50 [nM]
O=C([C@H](Cc1ccccc1)NCc1ccccn1)N1CCc2ccc(-c3ccncc3)cc21 [Example 50, (S)-3-Phenyl-2-(pyridin-2-ylmethylamino)-1-(6-(pyridin-4-yl)indolin-1-yl)propan-1-one TFA Salt] | 100 to 1000
O=C(Nc1cc(-c2ccncc2)no1)[C@H](Cc1ccccc1)NCc1cscn1 [Example 3.3, (S)-3-Phenyl-N-(3-(pyridin-4-yl)isoxazol-5-yl)-2-(thiazol-4-ylmethylamino)propanamide] | 100 to 1000
O=C(Nc1cccc(-c2ccc(F)cc2)c1)[C@H](Cc1ccccc1)NCc1cscn1 [Example 44] | 100 to 1000
Cc1cc(-c2cc(-c3n[nH]c(=S)o3)c3c(c2)N(C(=O)[C@H](Cc2ccccc2)NCc2cscn2)CC3)ccn1 [Example 66, (2S)-1-(6-(2-Methylpyridin-4-yl)-4-(5-thioxo-4,5-dihydro-1,3,4-oxadiazol-2-yl)indolin-1-yl)-3-phenyl-2-(thiazol-4-ylmethylamino)propan-1-one] | < 50
O=C(Nc1nnc(-c2ccncc2)s1)[C@H](Cc1cccc(F)c1)NCc1cscn1 [Example 1.6, (S)-3-(3-fluorophenyl)-N-(5-(pyridin-4-yl)-1,3,4-thiadiazol-2-yl)-2-(thiazol-4-ylmethylamino)propanamide] | 50 to 100
COC(=O)COc1ccc(-c2ccnc(C)c2)cc1NC(=O)[C@H](Cc1ccccc1)NCc1cscn1 [Example 64, Methyl 2-(4-(2-methylpyridin-4-yl)-2-((S)-3-phenyl-2-(thiazol-4-ylmethylamino)propanamido)phenoxy)acetate] | 50 to 100
Cc1cc(-c2nc(C)c(NC(=O)[C@H](Cc3ccc(F)cc3)NCc3cscn3)s2)ccn1 [Example 22, (2S)-3-(4-Fluorophenyl)-N-(4-methyl-2-(2-methylpyridin-4-yl)thiazol-5-yl)-2-(thiazol-4-ylmethylamino)propanamide] | 50 to 100
Nc1cc(-c2cccc(NC(=O)[C@H](Cc3ccccc3)NCc3cscn3)c2)ccn1 [Example 36, (2S)—N-(3-(2-Aminopyridin-4-yl)phenyl)-3-phenyl-2-(thiazol-4-ylmethylamino)propanamide] | 100 to 1000
COc1ccc(NC(=O)[C@H](Cc2ccccc2)NCc2cscn2)cc1-c1ccncc1 [Example 38, (S)—N-(4-Methoxy-3-(pyridin-4-yl)phenyl)-3-phenyl-2-(thiazol-4-ylmethylamino)propanamide] | 100 to 1000
CC(C)n1nc(-c2ccncc2)cc1NC(=O)[C@H](Cc1ccc(Cl)cc1)NCC(=O)O [Example 29, (S)-2-(3-(4-Chlorophenyl)-1-(1-isopropyl-3-(pyridin-4-yl)-1H-pyrazol-5-ylamino)-1-oxopropan-2-ylamino)acetic acid] | 50 to 100
O=C(Nc1csc(-c2ccncc2)n1)[C@H](Cc1ccccc1)NCc1cscn1 [Example 4, (S)-3-Phenyl-N-(2-(pyridin-4-yl)thiazol-4-yl)-2-(thiazol-4-ylmethylamino)propanamide] | 100 to 1000
O=C([C@H](Cc1ccccc1)NCc1cscn1)N1CCc2c(-c3n[nH]c(=S)o3)cc(-c3ccncc3)cc21 [Example 58, (S)-3-Phenyl-1-(6-(pyridin-4-yl)-4-(5-thioxo-4,5-dihydro-1,3,4-oxadiazol-2-yl)indolin-1-yl)-2-(thiazol-4-ylmethylamino)propan-1-one] | < 50
Cn1nc(-c2ccncc2)cc1NC(=O)[C@H](Cc1ccccc1)NCC1CC1 [Example 17.6, (S)-2-(Cyclopropylmethylamino)-N-(1-methyl-3-(pyridin-4-yl)-1H-pyrazol-5-yl)-3-phenylpropanamide] | 100 to 1000
Cc1cc(-c2cccc(NC(=O)[C@H](Cc3ccccc3)NCc3cscn3)c2)ccn1 [Example 39, (2S)—N-(3-(2-methylpyridin-4-yl)phenyl)-3-phenyl-2-(thiazol-4-ylmethylamino)propanamide] | 50 to 100

The remaining lines, values ahead:

EC50 [nM] | SMILES
100 to 1000 | Cn1cnnc1CN[C@@H](Cc1ccccc1)C(=O)Nc1cccc(-c2ccncc2)c1 [Example 34.20, (S)-2-((4-Methyl-4H-1,2,4-triazol-3-yl)methylamino)-3-phenyl-N-(3-(pyridin-4-yl)phenyl)propanamide]
1000 to 10000 | N[C@@H](Cc1ccccc1)C(=O)Nc1cc(C(=O)O)cc(-c2ccncc2)c1 [Example 45.1, (S)-3-(2-Amino-3-phenylpropanamido)-5-(pyridin-4-yl)benzoic acid]
100 to 1000 | O=C(Nc1cccc(-c2ccncc2)c1)[C@H](Cc1cccc(F)c1)NCC1CC1 [Example 34.12, (S)-2-(Cyclopropylmethylamino)-3-(3-fluorophenyl)-N-(3-(pyridin-4-yl)phenyl)propanamide]
< 50 | CNc1cc(-c2cc(NC(=O)[C@H](Cc3ccccc3)NCc3cscn3)n(C)n2)ccn1 [Example 23.10, (2S)—N-(1-methyl-3-(2-(methylamino)pyridin-4-yl)-1H-pyrazol-5-yl)-3-phenyl-2-(thiazol-4-ylmethylamino)propanamide]
50 to 100 | COc1ncc(-c2ccncc2)cc1NC(=O)[C@H](Cc1ccccc1)NC1(c2ncccn2)CC1 [Example 35.5, (S)—N-(2-Methoxy-5-(pyridin-4-yl)pyridin-3-yl)-3-phenyl-2-(1-(pyrimidin-2-yl)cyclopropylamino)propanamide]
< 50 | CNc1cc(-c2cc(NC(=O)[C@H](Cc3ccc(F)cc3)NCc3cscn3)n(C)n2)ccn1 [Example 23.5]
< 50 | CNc1cc(-c2cc(NC(=O)[C@H](Cc3ccccc3)NCC(=O)O)n(C)n2)ccn1 [Example 23.9, 2-((S)-1-(1-Methyl-3-(2-(methylamino)pyridin-4-yl)-1H-pyrazol-5-ylamino)-1-oxo-3-phenylpropan-2-ylamino)acetic acid]
1000 to 10000 | Cc1cc(-c2cc(NC(=O)[C@@H](N)Cc3ccc(Cl)cc3Cl)cc(C(=O)O)c2)ccn1 [Example 49.1, 3-((S)-2-Amino-3-(2,4-dichlorophenyl)propanamido)-5-(2-methylpyridin-4-yl)benzoic acid]
50 to 100 | CNc1cc(-c2cc(NC(=O)[C@H](Cc3ccc(F)cc3)NCc3ccn(C)n3)n(C)n2)ccn1 [Example 23.4, (2S)-3-(4-Fluorophenyl)-2-((1-methyl-1H-pyrazol-3-yl)methylamino)-N-(1-methyl-3-(2-(methylamino)pyridin-4-yl)-1H-pyrazol-5-yl)propanamide]
100 to 1000 | O=C(Nc1cc(-c2ccncc2)c[nH]c1=O)[C@H](Cc1cccc(Cl)c1)NCc1cscn1 [Example 25.1, (S)-3-(3-Chlorophenyl)-N-(2-oxo-5-(pyridin-4-yl)-1,2-dihydropyridin-3-yl)-2-(thiazol-4-ylmethylamino)propanamide trifluoroacetate]
1000 to 10000 | O=C(Nc1cccc(-c2ccncc2F)c1)[C@H](Cc1ccccc1)NCc1cscn1 [Example 34.21, (2S)—N-(3-(3-Fluoropyridin-4-yl)phenyl)-3-phenyl-2-(thiazol-4-ylmethylamino)propanamide TFA salt]
50 to 100 | CCC(N[C@@H](Cc1ccccc1)C(=O)Nc1cccc(-c2ccncc2)c1)c1ccccn1 (stereo partly drawn) [Example 34.3, (2S)-3-Phenyl-2-(1-(pyridin-2-yl)propylamino)-N-(3-(pyridin-4-yl)phenyl)propanamide]
100 to 1000 | COc1ncc(-c2ccncc2)cc1NC(=O)[C@H](Cc1ccccc1)NCc1ccon1 [Example 35.4, (S)-2-(Isoxazol-3-ylmethylamino)-N-(2-methoxy-5-(pyridin-4-yl)pyridin-3-yl)-3-phenylpropanamide]
